Measured values from patent publication US20160075682A1, “INHIBITORS OF NICOTINAMIDE PHOSPHORIBOSYLTRANSFERASE, COMPOSITIONS, PRODUCTS AND USES THEREOF” (UNIVERSITÀ DEGLI STUDI DEL PIEMONTE ORIENTALE "AMEDEO …, priority 2013, published 2016).

Tests used:
SH-SY5Y, HeLa = assay: MTT cell proliferation assay and trypan blue count (cell viability); format: cell-based; details: cells treated for 48 and 72 hours; read-out: IC50 values (inhibition of cellular proliferation, MTT assay and trypan blue assay)
Experimental: Cell based assays were used to evaluate the possible cytotoxic effects of some compounds. To measure cytotoxic effects two different methods were used, a MTT cell proliferation assay and trypan blue count.
The Trypan blue assay is used to determine the number of viable cells present in a cell suspension. […] Briefly, 8×10^5 cells (SH-SY5Y, HeLa; obtained from ATCC, LGC standards, Sesto San Giovanni) were seeded in 24-well plates and treated for 48 and 72 hours. After the treatments, cells were stained with trypan blue and counted.
To analyze cell viability was used the colorimetric 3-(4,5-dimethylthiazol-2-yl)-2,5-diphenyltetrazolium bromide (MTT) method. The assay is based on the cleavage of the yellow tetrazolium salt MTT to purple formazan crystals by metabolic active cells. Since reduction of MTT can only occur in metabolically active cells, the level of activity is a measure of the viability of cells and conversely the cytotoxic effects of various treatments. Briefly, 8×10^5 cells (SH-SY5Y, code number CRL-2266; and HeLa, code number CCL-2) were seeded in 24-well plates and treated for 48 and 72 hours. Compounds were dissolved in DMSO and were added to the cells to give a final DMSO concentration no greater than 0.5%. Cells were washed once in Locke buffer and 300 μl of MTT (250 μg/ml in Locke buffer) were added before returning the cells to the incubator for 1 h to allow the formation of the purple formazan crystals. After 1 h, 600 μl of isopropanol/0.1 M HCl were added to each well, and the absorbance was read at 570 nm in a plate reader (Victor3V, PerkinElmer Life Sciences). For some compounds a dose response curve and IC50 for the effects on cell viability and proliferation were calculated. Cell lines used were originally purchased from ATCC (LGC standards. Sesto San Giovanni).
To evaluate the ability of each compound to inhibit cellular proliferation, cells were seeded in 24-well plates and treated for 48 and 72 hours. After the treatments the MTT assay and trypan blue assay were performed.

NAMPT = biological target: T1, NAMPT (Homo sapiens, UniProt P43490); assay: Direct inhibition of NAMPT enzymatic activity (Cyclex NAMPT colorimetric Assay Kit); format: biochemical; details: as assessed with a cycling assay
T1 construct: endogenous in cells; host or cells: SH-SY5Y and HeLa
Experimental: Determination of the direct activity of compounds on NAMPT was performed using a commercial kit, Cyclex NAMPT colorimetric Assay Kit.

[1] = tested on: DNBS-induced colitis in BALB/c mice; assay: Experimental colitis induced by DNBS; format: in vivo; details: i.p.
Experimental: Animal work was authorized by the local ethical committee for animal studies (Università del Piemonte Orientale). BALB/c mice (Harlan Nossan, Milan, Italy) were anesthetized by enflurane. Dinitrobenzene sulfonic acid (DNBS; 4 mg in 100 μl of 50% ethanol) was injected into the rectum through a catheter inserted 4.5 cm proximally to the anus. Carrier alone (100 μl of 50% ethanol) was administered in control experiments. Thereafter, the animals were kept for 15 minutes in a Trendelenburg position to avoid reflux. Treatment with either solvent alone or drugs was done immediately after induction and thereafter twice a day. […] On Day 4, the animals were weighed and anaesthetized with chloral hydrate, and the abdomen was opened by a midline incision. The colon was removed, freed from surrounding tissues, opened along the antimesenteric border, rinsed, weighed, and processed for histology, biochemical measurements and immunohistochemistry. Colon damage (macroscopic damage score) was evaluated and scored by two independent observers according to the following criteria: 0, no damage; 1, localized hyperemia without ulcers; 2, linear ulcers with no significant inflammation; 3, linear ulcers with inflammation at one site; 4, two or more major sites of inflammation and ulceration extending >1 cm along the length of the colon; and 5-8, one point is added for each centimeter of ulceration beyond an initial 2 cm. Biochemical and histological analysis also included TNFalpha measurements and myeloperoxidase (MPO) measurements by ELISA assay, and VEGF, NAMPT, COX-2 measurements by immunoblotting. (Esposito E, Mazzon E, Paterniti I, Dal Toso R, Pressi G, Caminiti R, Cuzzocrea S. PPAR-alpha Contributes to the Anti-Inflammatory Activity of Verbascoside in a Model of Inflammatory Bowel Disease in Mice. PPAR Res. 2010; 2010:917312).
(§1) As previously described, the colon of DNBS- or dextran treated animals was removed after the induction of colitis. Compounds of formula (I) were administered intraperitoneally (i.p.).

[2] = tested on: Dextran-induced colitis in C57/BJ6 mice; assay: Experimental colitis induced by dextran sulfate sodium (DSS); format: in vivo; details: i.p., doses of between 20 mg/Kg and 500 mg/Kg
Experimental: Animal work was authorized by the local ethical committee for animal studies (Università del Piemonte Orientale). Colitis was induced in C57/BJ6 mice (Harlan Nossan, Milan, Italy) by addition of DSS (2%) to their daily drinking water for 7 days followed by a 3-day recovery period without DSS. The severity of colitis was assessed using these set of criteria: (1) clinical index (daily changes in body weight; diarrhea and rectal bleeding); (2) macroscopic evidence of colitis (shortening of colon length). On day 10 of the experiment, animals were sacrificed. Treatments were performed with either solvent alone or drugs once a day for the entire duration of the experiments from day 1 to day 7. The colon lengths were measured and colon tissues were harvested for biochemical measurements, histopathological assessment and scoring. (Tang Y, Preuss F, Turek F W, Jakate S, Keshavarzian A. Sleep deprivation worsens inflammation and delays recovery in a mouse model of colitis. Sleep Med. 2009 June; 10(6):597-603).
as §1

[3] = DNBS-treated mice, between 20 mg/Kg and 500 mg/Kg, compared to untreated colitis mice

T1 sequence (P43490 whole entry): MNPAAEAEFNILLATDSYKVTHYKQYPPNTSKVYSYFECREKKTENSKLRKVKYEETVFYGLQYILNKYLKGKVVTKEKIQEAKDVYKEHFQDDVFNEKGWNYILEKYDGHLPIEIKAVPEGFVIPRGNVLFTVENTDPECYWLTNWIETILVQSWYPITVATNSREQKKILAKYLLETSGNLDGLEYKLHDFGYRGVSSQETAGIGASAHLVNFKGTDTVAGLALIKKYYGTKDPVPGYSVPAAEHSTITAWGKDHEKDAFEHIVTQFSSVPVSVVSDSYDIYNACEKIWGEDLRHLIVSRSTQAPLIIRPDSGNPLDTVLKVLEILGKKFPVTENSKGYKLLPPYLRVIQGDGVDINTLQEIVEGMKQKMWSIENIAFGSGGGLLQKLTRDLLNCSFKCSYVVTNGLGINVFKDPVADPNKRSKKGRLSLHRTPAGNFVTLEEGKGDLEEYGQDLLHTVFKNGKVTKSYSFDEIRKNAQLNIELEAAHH

Compound: O=C(O)c1ccccc1-c1ccccc1C(=O)NCCCCCCCn1cc(-c2cccnc2)nn1 [2′-((7-(4-(pyridin-3-yl)-1H-1,2,3-triazol-1-yl)heptyl)carbamoyl)-[1,1′-biphenyl]-2-carboxylic acid]
- IC50 (SH-SY5Y, HeLa): < 300 nM
- inhibition of the enzymatic activity of NAMPT (NAMPT): able to inhibit
- MPO in the colon [1, 3]: able to reduce
- NAMPT in the colon [1, 3]: able to reduce
- TNFalpha in the colon [1, 3]: able to reduce
- VEGF in the colon [1, 3]: able to reduce
- protection from DNBS-induced colitis as assessed by the macroscopic damage score ([1]; doses of between 20 mg/Kg and 500 mg/Kg): able to protect
- protection from Dextran-induced colitis as assessed by the macroscopic damage score [2]: able to protect
